For 12 compounds, T/C results are on record in PubChem BioAssay AID248 (DTP/NCI, 2004).

Values joined by “and” are separate entries in the source; they are usually repeats but may differ in a detail not shown here. Identical values can stand only once. Toxic doses and inconclusive results are not listed.

The test concerns L1210 leukemia ip in BDF1 mice, survival T/C. The experiment in a line: NCI In Vivo Anticancer Drug Screen. Data for tumor model L1210 Leukemia (intraperitoneal) in B6D2F1 (BDF1) mice. Conditions: endpoint: mean survival time, higher = longer survival. The gist of the method:
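Read-out is survival time, reported as the treated-group measurement over the vehicle-control measurement.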

[1] abbreviates: dose: 20.0 mg/kg/injection, schedule: Q01DX Z (ip), vehicle: carboxymethylcellulose (CMC).
The mark [2] stands for this setting: dose: 100.0 mg/kg/injection, schedule: Q04DX003 (ip), vehicle: Klucel (hydroxypropylcellulose) (HPC).
Setting [3] is: dose: 200.0 mg/kg/injection, schedule: Q04DX003 (ip), vehicle: Klucel (hydroxypropylcellulose) (HPC).
Setting [4] is: dose: 400.0 mg/kg/injection, schedule: Q04DX003 (ip), vehicle: Klucel (hydroxypropylcellulose) (HPC).
The mark [5] stands for this setting: dose: 100.0 mg/kg/injection, schedule: Q01DX009 (ip), vehicle: saline with Tween-80.
The mark [6] stands for this setting: dose: 200.0 mg/kg/injection, schedule: Q01DX009 (ip), vehicle: saline with Tween-80.

Take `C=C(C)C(=O)O[C@H]1CC2=C[C@@H](C[C@@]3(C)O[C@@H]3[C@H]3OC(=O)C(=C)[C@@H]31)OC2=O`: the T/C by setting is: (dose: 2.5 mg/kg/injection, schedule: Q01DX009 (ip), vehicle: saline + alcohol) 112 % of control; (dose: 5.0 mg/kg/injection, schedule: Q01DX009 (ip), vehicle: saline + alcohol) 110 % of control; (dose: 5.0 mg/kg/injection, schedule: Q01DX Z (ip), vehicle: saline) 106 % of control; (dose: 10.0 mg/kg/injection, schedule: Q01DX009 (ip), vehicle: carboxymethylcellulose (CMC)) 105 % of control; (dose: 10.0 mg/kg/injection, schedule: Q01DX009 (ip), vehicle: saline + alcohol) 107 % of control; (dose: 10.0 mg/kg/injection, schedule: Q01DX Z (ip), vehicle: carboxymethylcellulose (CMC)) 97 % of control. Also, the T/C is 101 % of control (dose: 10.0 mg/kg/injection, schedule: Q01DX Z (ip), vehicle: saline); 93 % of control (dose: 20.0 mg/kg/injection, schedule: Q01DX009 (ip), vehicle: carboxymethylcellulose (CMC)); 105 % of control (dose: 20.0 mg/kg/injection, schedule: Q01DX009 (ip), vehicle: saline + alcohol); 100 % of control under setting [1]; 100 % of control (dose: 40.0 mg/kg/injection, schedule: Q01DX009 (ip), vehicle: carboxymethylcellulose (CMC)); 90 % of control (dose: 40.0 mg/kg/injection, schedule: Q01DX009 (ip), vehicle: saline + alcohol). Besides, the T/C (dose: 40.0 mg/kg/injection, schedule: Q01DX Z (ip), vehicle: carboxymethylcellulose (CMC)) is 103 % of control.

As to `Nc1nncs1`, the T/C runs as follows: (dose: 3.75 mg/kg/injection, schedule: Q01DX015 (ip), vehicle: saline) 103 % of control; (dose: 7.0 mg/kg/injection, schedule: Q03HX032 (ip), vehicle: saline) 107 % of control; (dose: 7.5 mg/kg/injection, schedule: Q01DX015 (ip), vehicle: saline) 106 % of control; (dose: 7.5 mg/kg/injection, schedule: Q01DX Z (ip), vehicle: carboxymethylcellulose (CMC)) 96 % of control; (dose: 11.0 mg/kg/injection, schedule: Q03HX032 (ip), vehicle: saline) 119 % of control; (dose: 12.5 mg/kg/injection, schedule: Q01DX009 (ip), vehicle: saline) 120 % of control. Besides, the T/C was 109 % of control (dose: 15.0 mg/kg/injection, schedule: Q01DX015 (ip), vehicle: saline); 114 % of control (dose: 15.0 mg/kg/injection, schedule: Q01DX Z (ip), vehicle: carboxymethylcellulose (CMC)); 108 % of control (dose: 16.0 mg/kg/injection, schedule: Q03HX032 (ip), vehicle: saline); 116 % of control under setting [1]; 124 % of control (dose: 24.0 mg/kg/injection, schedule: Q03HX032 (ip), vehicle: saline); 106 % of control (dose: 25.0 mg/kg/injection, schedule: Q01DX009 (ip), vehicle: saline). Moreover, the T/C is, setting by setting: (dose: 25.0 mg/kg/injection, schedule: Q01DX Z (ip), vehicle: carboxymethylcellulose (CMC)) 112 % of control; (dose: 27.0 mg/kg/injection, schedule: Q01DX015 (ip), vehicle: saline) 123 % of control; (dose: 32.0 mg/kg/injection, schedule: Q01DX009 (ip), vehicle: Klucel (hydroxypropylcellulose) (HPC)) 151 % of control; (dose: 36.0 mg/kg/injection, schedule: Q03HX032 (ip), vehicle: saline) 156 % of control; (dose: 50.0 mg/kg/injection, schedule: Q01DX009 (ip), vehicle: saline) 95 % of control; (dose: 60.0 mg/kg/injection, schedule: Q01DX015 (ip), vehicle: saline) 151 % of control and 165 % of control and 166 % of control. Besides, the T/C reads like this: (dose: 64.0 mg/kg/injection, schedule: Q01DX009 (ip), vehicle: Klucel (hydroxypropylcellulose) (HPC)) 94 % of control and 112 % of control; (dose: 90.0 mg/kg/injection, schedule: Q01DX015 (ip), vehicle: saline) 168 % of control; (dose: 120.0 mg/kg/injection, schedule: Q01DX015 (ip), vehicle: saline) 171 % of control; (dose: 128.0 mg/kg/injection, schedule: Q01DX009 (ip), vehicle: Klucel (hydroxypropylcellulose) (HPC)) 88 % of control and 90 % of control; (dose: 135.0 mg/kg/injection, schedule: Q01DX015 (ip), vehicle: saline) 151 % of control; (dose: 240.0 mg/kg/injection, schedule: Q01DX015 (ip), vehicle: saline) 116 % of control. For the same compound, the T/C was 120 % of control (dose: 270.0 mg/kg/injection, schedule: Q01DX001 (ip), vehicle: saline); 107 % of control (dose: 480.0 mg/kg/injection, schedule: Q01DX015 (ip), vehicle: saline); 100 % of control (dose: 500.0 mg/kg/injection, schedule: Q04DX003 (ip), vehicle: saline); 124 % of control (dose: 600.0 mg/kg/injection, schedule: Q01DX001 (ip), vehicle: saline); 163 % of control (dose: 1000.0 mg/kg/injection, schedule: Q04DX003 (ip), vehicle: saline).

As for `Cc1ccc(Nc2cc(C)nc(N)n2)cc1`, the T/C (dose: 25.0 mg/kg/injection, schedule: Q01DX Z (ip), vehicle: methylcellulose (MC)) is 90 % of control.

In the case of `CC1CCC2C(C1)N(c1ccccc1)OC2(C)C` (stereo not drawn), the T/C under setting [2] was 100 % of control, the T/C under setting [3] was 94 % of control and the T/C under setting [4] was 102 % of control.

Consider `Nc1nc2nc3c(nc2c(=O)[nH]1)C(=O)N(c1ccc(C(=O)O)cc1)C3`, for which the T/C reads like this: (dose: 100.0 mg/kg/injection, schedule: Q01DX001 (ip), vehicle: saline) 103 % of control; (dose: 200.0 mg/kg/injection, schedule: Q01DX001 (ip), vehicle: saline) 103 % of control.

Consider `O=[N+]([O-])c1ccc(Cc2ccccn2)cc1`, for which the T/C by setting is: (dose: 100.0 mg/kg/injection, schedule: Q01DX001 (ip), vehicle: Klucel (hydroxypropylcellulose) (HPC)) 104 % of control; (dose: 100.0 mg/kg/injection, schedule: Q01DX009 (ip), vehicle: Klucel (hydroxypropylcellulose) (HPC)) 95 % of control; (dose: 200.0 mg/kg/injection, schedule: Q01DX001 (ip), vehicle: Klucel (hydroxypropylcellulose) (HPC)) 108 % of control; (dose: 200.0 mg/kg/injection, schedule: Q01DX009 (ip), vehicle: Klucel (hydroxypropylcellulose) (HPC)) 101 % of control; (dose: 400.0 mg/kg/injection, schedule: Q01DX001 (ip), vehicle: Klucel (hydroxypropylcellulose) (HPC)) 112 % of control.

Take `C=CCC(Cc1cc(CC(CC=C)(C(=O)OCC)C(=O)OCC)cc(CC(CC=C)(C(=O)OCC)C(=O)OCC)c1)(C(=O)OCC)C(=O)OCC`: the T/C is 107 % of control (dose: 100.0 mg/kg/injection, schedule: Q04DX003 (ip), vehicle: acetone); 90 % of control (dose: 200.0 mg/kg/injection, schedule: Q04DX003 (ip), vehicle: acetone); 96 % of control (dose: 400.0 mg/kg/injection, schedule: Q04DX003 (ip), vehicle: acetone).

Take `N#Cc1c(C#N)c(/N=C/c2ccccc2)n(/N=C/c2ccccc2)c1N`: the T/C is, setting by setting: (dose: 87.5 mg/kg/injection, schedule: Q04DX003 (ip), vehicle: other) 91 % of control; (dose: 175.0 mg/kg/injection, schedule: Q04DX003 (ip), vehicle: other) 93 % of control; (dose: 350.0 mg/kg/injection, schedule: Q04DX003 (ip), vehicle: other) 95 % of control.

As to `c1ccc([C@H]2N[C@H]2c2ccccc2)cc1`, the T/C runs as follows: under setting [2], 96 % of control; under setting [3], 95 % of control; under setting [4], 98 % of control.

In the case of `COc1ccc(C)cc1NC(=O)NC(=O)c1ccc(Cl)cc1`, the T/C reads like this: (dose: 50.0 mg/kg/injection, schedule: Q01DX009 (ip), vehicle: saline with Tween-80) 88 % of control; under setting [5], 98 % of control; under setting [6], 95 % of control.

`CN(C)c1ccc(Cc2ccc(N(C)C)cc2)cc1`: the T/C was 96 % of control under setting [5]; 94 % of control under setting [6]; 86 % of control (dose: 400.0 mg/kg/injection, schedule: Q01DX009 (ip), vehicle: saline with Tween-80).

`C[n+]1c(/C=C/c2c[nH]c3ccccc23)ccc2ccccc21`: the T/C reads like this: (dose: 5.0 mg/kg/injection, schedule: Q01DX001 (ip), vehicle: acetone) 101 % of control; (dose: 10.0 mg/kg/injection, schedule: Q01DX001 (ip), vehicle: acetone) 102 % of control; (dose: 20.0 mg/kg/injection, schedule: Q01DX001 (ip), vehicle: acetone) 96 % of control; (dose: 40.0 mg/kg/injection, schedule: Q01DX001 (ip), vehicle: acetone) 107 % of control; (dose: 80.0 mg/kg/injection, schedule: Q01DX001 (ip), vehicle: acetone) 100 % of control.
